According to US7812220B2, “Engineering β-ketoacyl ACP synthase for novel substrate specificity” (Calgene LLC, priority 1999, dated 2010):
Changes are numbered by the printed parent chain. Numbers in names are those of the source.

What was measured:
[1] = biological target: fatty acid synthase from Saccharomyces cerevisiae (Saccharomyces cerevisiae, UniProt P19097); conditions: among chain length analogues maintaining the double bond positions; cited from earlier work
KASII = conditions: in comparison with cerulenin; cited from earlier work
E. coli strain M15/pREP4 = experiment: Effect of expression of KAS II mutants on the fatty acid composition of E. coli (GC FAME); assay type: cell-based; conditions: for accumulation of 18:0: IPTG induced 2 hours; for long chain fatty acid accumulation due to L111A and F133A: in combination mutants
Experimental: The mutant KAS II genes cloned behind an IPTG inducible T5 promoter (pQE30 vector, Qiagen) were transformed into E. coli strain M15/pREP4. E. coli M15/pREP4 strains containing no vector (−Vec), vector without insert (+Vec), or vectors expression wild-type KAS I or II or single or multiple engineered forms of KASII were grown to mid-log phase in LB media at 30° C. Expression was induced for 2 hours with IPTG (0.75 mM), cells were harvested, lyophilzed, and the lipids were extracted into toluene and derivatized by sodium methoxide and analyzed for fatty acid content by GC FAME analysis as described in Dehesh, et al. (1998) Plant J. 15:383-390.

fatty acid synthase from Saccharomyces cerevisiae, sequence (P19097 whole entry): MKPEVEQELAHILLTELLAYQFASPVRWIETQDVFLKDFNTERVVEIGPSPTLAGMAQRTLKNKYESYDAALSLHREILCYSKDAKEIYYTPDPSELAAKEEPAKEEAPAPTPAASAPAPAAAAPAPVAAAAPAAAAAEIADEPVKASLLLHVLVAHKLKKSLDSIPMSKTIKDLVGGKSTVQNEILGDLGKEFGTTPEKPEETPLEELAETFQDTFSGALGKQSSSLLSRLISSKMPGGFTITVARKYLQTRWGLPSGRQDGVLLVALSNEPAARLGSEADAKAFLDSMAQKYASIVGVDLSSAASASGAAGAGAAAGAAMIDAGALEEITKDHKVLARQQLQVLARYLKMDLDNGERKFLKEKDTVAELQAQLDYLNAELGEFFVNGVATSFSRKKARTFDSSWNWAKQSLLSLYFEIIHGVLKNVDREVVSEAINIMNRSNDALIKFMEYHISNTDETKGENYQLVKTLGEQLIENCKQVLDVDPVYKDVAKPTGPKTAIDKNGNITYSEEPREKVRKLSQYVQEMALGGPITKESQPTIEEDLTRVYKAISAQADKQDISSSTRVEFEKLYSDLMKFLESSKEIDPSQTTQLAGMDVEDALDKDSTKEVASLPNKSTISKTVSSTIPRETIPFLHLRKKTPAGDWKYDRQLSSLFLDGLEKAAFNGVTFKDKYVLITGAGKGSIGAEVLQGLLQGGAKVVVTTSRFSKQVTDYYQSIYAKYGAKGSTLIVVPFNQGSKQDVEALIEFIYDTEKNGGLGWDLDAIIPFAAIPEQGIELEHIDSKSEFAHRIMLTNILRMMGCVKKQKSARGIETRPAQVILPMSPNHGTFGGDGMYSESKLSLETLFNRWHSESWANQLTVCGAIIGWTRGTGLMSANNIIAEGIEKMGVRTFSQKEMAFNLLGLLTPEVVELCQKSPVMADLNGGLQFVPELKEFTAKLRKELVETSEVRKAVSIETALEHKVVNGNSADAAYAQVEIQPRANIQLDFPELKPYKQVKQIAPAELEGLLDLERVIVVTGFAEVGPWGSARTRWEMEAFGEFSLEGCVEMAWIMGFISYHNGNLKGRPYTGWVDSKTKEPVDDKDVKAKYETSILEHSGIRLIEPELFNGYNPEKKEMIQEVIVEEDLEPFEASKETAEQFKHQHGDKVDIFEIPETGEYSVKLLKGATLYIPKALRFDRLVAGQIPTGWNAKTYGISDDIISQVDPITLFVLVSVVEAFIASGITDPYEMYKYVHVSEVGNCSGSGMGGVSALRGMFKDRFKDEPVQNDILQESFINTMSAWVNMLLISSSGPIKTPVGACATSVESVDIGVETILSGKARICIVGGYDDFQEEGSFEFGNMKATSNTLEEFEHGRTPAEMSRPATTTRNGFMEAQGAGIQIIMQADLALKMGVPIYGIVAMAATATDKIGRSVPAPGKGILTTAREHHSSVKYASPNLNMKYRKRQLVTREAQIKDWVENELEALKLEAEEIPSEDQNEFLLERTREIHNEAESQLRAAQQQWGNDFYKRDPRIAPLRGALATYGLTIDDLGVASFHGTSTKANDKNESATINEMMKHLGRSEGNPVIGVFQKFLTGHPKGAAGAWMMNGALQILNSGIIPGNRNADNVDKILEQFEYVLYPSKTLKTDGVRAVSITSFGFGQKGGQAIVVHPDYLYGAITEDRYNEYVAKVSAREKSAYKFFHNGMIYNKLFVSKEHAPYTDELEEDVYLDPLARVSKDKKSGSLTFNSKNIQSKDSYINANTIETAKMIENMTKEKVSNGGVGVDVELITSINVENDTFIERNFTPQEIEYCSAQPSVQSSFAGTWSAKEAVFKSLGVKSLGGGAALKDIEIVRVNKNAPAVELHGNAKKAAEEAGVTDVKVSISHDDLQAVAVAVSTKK
fatty acid synthase from Saccharomyces cerevisiae, sequence (P07149 whole entry partner): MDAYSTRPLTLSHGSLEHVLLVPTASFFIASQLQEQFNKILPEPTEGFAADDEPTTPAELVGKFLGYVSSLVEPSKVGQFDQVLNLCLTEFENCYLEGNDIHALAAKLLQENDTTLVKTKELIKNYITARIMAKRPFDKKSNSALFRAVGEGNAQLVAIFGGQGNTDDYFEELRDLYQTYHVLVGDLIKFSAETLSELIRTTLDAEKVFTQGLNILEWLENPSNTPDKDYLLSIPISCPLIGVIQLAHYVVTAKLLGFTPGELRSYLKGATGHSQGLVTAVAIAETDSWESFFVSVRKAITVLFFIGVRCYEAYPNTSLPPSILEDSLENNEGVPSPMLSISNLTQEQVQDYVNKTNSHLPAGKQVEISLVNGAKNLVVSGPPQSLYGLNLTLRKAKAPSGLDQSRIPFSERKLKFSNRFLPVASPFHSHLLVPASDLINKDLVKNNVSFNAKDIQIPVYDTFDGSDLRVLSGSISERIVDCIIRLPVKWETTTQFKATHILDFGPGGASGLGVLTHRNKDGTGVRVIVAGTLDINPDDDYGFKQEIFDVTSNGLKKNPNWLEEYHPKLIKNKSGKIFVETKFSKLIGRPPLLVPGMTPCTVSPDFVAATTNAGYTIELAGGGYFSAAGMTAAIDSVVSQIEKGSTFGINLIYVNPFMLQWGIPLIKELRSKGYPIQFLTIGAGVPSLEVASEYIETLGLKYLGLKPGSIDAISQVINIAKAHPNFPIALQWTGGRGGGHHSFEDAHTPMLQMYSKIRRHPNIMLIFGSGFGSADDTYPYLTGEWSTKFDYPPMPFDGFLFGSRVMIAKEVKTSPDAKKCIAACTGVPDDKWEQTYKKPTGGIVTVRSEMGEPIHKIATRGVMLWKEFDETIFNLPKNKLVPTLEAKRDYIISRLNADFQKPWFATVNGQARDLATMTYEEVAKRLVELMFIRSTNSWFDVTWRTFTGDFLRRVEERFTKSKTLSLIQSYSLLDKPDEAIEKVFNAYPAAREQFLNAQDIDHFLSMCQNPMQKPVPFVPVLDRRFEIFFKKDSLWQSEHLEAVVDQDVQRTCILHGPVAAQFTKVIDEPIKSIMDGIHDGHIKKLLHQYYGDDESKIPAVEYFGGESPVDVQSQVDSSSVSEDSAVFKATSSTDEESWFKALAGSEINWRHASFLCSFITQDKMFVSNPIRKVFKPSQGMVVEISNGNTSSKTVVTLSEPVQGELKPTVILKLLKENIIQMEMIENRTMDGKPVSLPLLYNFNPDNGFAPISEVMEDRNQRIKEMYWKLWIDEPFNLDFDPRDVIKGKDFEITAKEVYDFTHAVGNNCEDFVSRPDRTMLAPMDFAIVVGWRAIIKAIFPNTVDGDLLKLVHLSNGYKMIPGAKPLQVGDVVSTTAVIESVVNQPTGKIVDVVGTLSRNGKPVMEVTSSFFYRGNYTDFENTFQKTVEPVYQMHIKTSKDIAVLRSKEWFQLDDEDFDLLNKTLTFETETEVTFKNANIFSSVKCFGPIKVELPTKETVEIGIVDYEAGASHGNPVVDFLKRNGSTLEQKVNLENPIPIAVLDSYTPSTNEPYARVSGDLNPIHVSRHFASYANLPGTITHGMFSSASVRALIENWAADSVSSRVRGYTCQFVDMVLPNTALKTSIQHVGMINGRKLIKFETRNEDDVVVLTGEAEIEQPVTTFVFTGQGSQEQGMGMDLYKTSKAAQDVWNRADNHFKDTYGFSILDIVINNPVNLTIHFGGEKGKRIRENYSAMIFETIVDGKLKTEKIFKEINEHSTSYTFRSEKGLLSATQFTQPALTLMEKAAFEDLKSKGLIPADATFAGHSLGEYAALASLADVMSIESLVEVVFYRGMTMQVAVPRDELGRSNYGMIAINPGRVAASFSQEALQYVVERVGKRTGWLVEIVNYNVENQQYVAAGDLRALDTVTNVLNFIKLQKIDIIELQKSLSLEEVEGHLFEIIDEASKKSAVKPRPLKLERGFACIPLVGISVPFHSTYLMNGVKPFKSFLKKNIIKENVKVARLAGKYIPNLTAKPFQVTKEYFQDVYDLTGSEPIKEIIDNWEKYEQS

Molecule: C/C=C/C/C=C/CCC(=O)[C@H]1O[C@H]1C(N)=O [Cerulenin, cerulenin]
- inhibitory activity [1]: highest inhibitory activity

Molecule: CCCCCCCCC(=O)[C@H]1O[C@H]1C(N)=O [tetrahydrocerulenin]
- inhibitory activity, less than cerulenin (KASII): more than 2 orders of magnitude

Molecule: F133A: E. coli KAS II protein with F133A mutation
- accumulation of 18:0 (E. coli strain M15/pREP4; FIG. 3): 7%

Molecule: I108A
- long chain fatty acid accumulation due to L111A and F133A (E. coli strain M15/pREP4): decrease the long chain fatty acid accumulation

Molecule: I114A
- long chain fatty acid accumulation due to L111A and F133A (E. coli strain M15/pREP4): decrease the long chain fatty acid accumulation

Molecule: L111A: E. coli KAS II protein with L111A mutation
- accumulation of 18:0 (E. coli strain M15/pREP4; FIG. 3): 13%

B1: L197: E. coli KAS II protein with L197A mutation (protein, UniProt P0AAI5 2-413, looked up, variant L197A)
3-oxoacyl-[acyl-carrier-protei …: SKRRVVVTGLGMLSPVGNTVESTWKALLAGQSGISLIDHFDTSAYATKFAGLVKDFNCEDIISRKEQRKMDAFIQYGIVAGVQAMQDSGLEITEENATRIGAAIGSGIGGLGLIEENHTSLMNGGPRKISPFFVPSTIVNMVAGHLTIMYGLRGPSISIATACTSGVHNIGHAARIIAYGDADVMVAGGAEKASTPAGVGGFGAARALSTRNDNPQAASRPWDKERDGFVLGDGAGMLVLEEYEHAKKRGAKIYAELVGFGMSSDAYHMTSPPENGAGAALAMANALRDAGIEASQIGYVNAHGTSTPAGDKAEAQAVKTIFGEAASRVLVSSTKSMTGHLLGAAGAVESIYSILALRDQAVPPTINLDNPDEGCDLDFVPHEARQVSGMEYTLCNSFGFGGTNGSLIFKKI
- accumulation of 18:0 (E. coli strain M15/pREP4; FIG. 3): 4%

B2: KAS II/L111A-F133A (protein, UniProt P0AAI5 2-413, looked up, variant L111A F133A)
3-oxoacyl-[acyl-carrier-protei …: B1 3-oxoacyl-[acyl-carrier-protei … with L111A, F133A, A197L
- level of 20:0 (E. coli strain M15/pREP4; FIG. 3): 2%
- level of 20:1 (E. coli strain M15/pREP4; FIG. 3): 4%
